From article PMC8694143 (Microbiology Spectrum, 2021)
“Also recorded” adds a separate entry of the source. Non-standard residues stand in square brackets, D forms with d. Residues, ends and D or L forms follow the SMILES beside them. No end group written: not given here. *: point of attachment. 5FAM = O=C1OC2(c3ccc(O)cc3Oc3cc(O)ccc32)c2ccc(C(=O)*)cc21

Columns and labels:
[1] = Circular dichroism spectroscopy; assay type: physicochemical; conditions: CD, 50% TFE (vol/vol), peptide 0.2 mg/mL, room temperature
Method: Peptides were dissolved in ultrapure water or 50% TFE (vol/vol) at a concentration of 0.2 mg/mL for spectroscopy. Spectra of samples in a 1 mm pathlength quartz cuvette were recorded from 180 to 260 nm at 0.5 nm steps using an Applied Photophysics Chirascan Plus CD spectrophotometer operating at room temperature.

SspA = SspA protease resuspended at 2 mg/mL in 100 mM HEPES (pH 7.8); conditions: 37°C, up to 5 h
M. luteus ATCC 4698 = experiment: MIC determination in broth; assay type: cell-based, Micrococcus luteus; conditions: cation-adjusted MH broth, ~10^5 CFU/mL, 30°C, 48 h
Method: (§1) M. luteus ATCC 4698, S. aureus ATCC 29213, a panel of 7 MRSA (ATCC MP-2) strains, which includes ATCC BAA-41, BAA-42, BAA-44, BAA-1683, BAA-2094, BAA-2313, and 33592, and a series of additional bacterial isolates from human and veterinary cases were used in this study (Table S6). Bacterial strains were routinely grown in lysogeny broth (LB: 10 g/L tryptone, 5 g/L yeast extract, 10 g/L NaCl) at 30°C (M. luteus) or 37°C (Staphylococcus spp.) prior to use in specific experiments described below.
(§2) The MICs were measured for bioactive peptides identified from the initial screen. Cation-adjusted Mueller-Hinton (MH) broth was used as the growth medium for MIC determination experiments. Bacterial cultures were diluted to an OD of 5 × 10^−4 (∼10^5 CFU/mL) in 200 μL MH broth mixed with peptides in a 2-fold dilution series arrayed in 96-well plates. Plates were incubated without shaking at 30 or 37°C depending on the organism.

MRSA ATCC 33592 = experiment: MIC determination in broth; assay type: cell-based, Staphylococcus aureus; conditions: Table S5; STIP3 variants, highest conc. tested 100 μg/mL; cation-adjusted MH broth, ~10^5 CFU/mL, 2-fold dilution series, 37°C, 16 h
Method: as §1, §2

MRSA ATCC BAA-1683 = experiment: MIC determination in broth; assay type: cell-based, Staphylococcus aureus; conditions: STIP3 variants, highest conc. tested 100 μg/mL; cation-adjusted MH broth, ~10^5 CFU/mL, 2-fold dilution series, 37°C, 16 h
Method: as §1, §2

MRSA ATCC BAA-2094 = experiment: MIC determination in broth; assay type: cell-based, Staphylococcus aureus; conditions: STIP3 variants, highest conc. tested 100 μg/mL; cation-adjusted MH broth, ~10^5 CFU/mL, 2-fold dilution series, 37°C, 16 h
Method: as §1, §2

MRSA ATCC BAA-2313 = experiment: MIC determination in broth; assay type: cell-based, Staphylococcus aureus; conditions: STIP3 variants, highest conc. tested 100 μg/mL; cation-adjusted MH broth, ~10^5 CFU/mL, 2-fold dilution series, 37°C, 16 h
Method: as §1, §2

MRSA ATCC BAA-41 = experiment: MIC determination in broth; assay type: cell-based, Staphylococcus aureus; conditions: STIP3 variants, highest conc. tested 100 μg/mL; cation-adjusted MH broth, ~10^5 CFU/mL, 2-fold dilution series, 37°C, 16 h
Method: as §1, §2

MRSA ATCC BAA-42 = experiment: MIC determination in broth; assay type: cell-based, Staphylococcus aureus; conditions: STIP3 variants, highest conc. tested 100 μg/mL; cation-adjusted MH broth, ~10^5 CFU/mL, 2-fold dilution series, 37°C, 16 h
Method: as §1, §2

MRSA ATCC BAA-44 = experiment: MIC determination in broth; assay type: cell-based, Staphylococcus aureus; conditions: STIP3 variants, highest conc. tested 100 μg/mL; cation-adjusted MH broth, ~10^5 CFU/mL, 2-fold dilution series, 37°C, 16 h
Method: as §1, §2

S. aureus ATCC 29213 = experiment: MIC determination in broth; assay type: cell-based, Staphylococcus aureus; conditions: STIP3 variants, highest conc. tested 100 μg/mL; cation-adjusted MH broth, ~10^5 CFU/mL, 2-fold dilution series, 37°C, 16 h
Method: as §1, §2

Compound	MIC, M. luteus (M. luteus ATCC 4698)	MIC, S. aureus ATCC 33592 (SCCmec III) (MRSA ATCC 33592)	MIC, S. aureus ATCC BAA 1683 (SCCmec IV) (MRSA ATCC BAA-1683)	MIC, S. aureus ATCC BAA 2094 (SCCmec V) (MRSA ATCC BAA-2094)	MIC, S. aureus ATCC BAA 2313 (SCCmec XI) (MRSA ATCC BAA-2313)	MIC, S. aureus ATCC BAA 41 (SCCmec II) (MRSA ATCC BAA-41)	MIC, S. aureus ATCC BAA 42 (SCCmec VI) (MRSA ATCC BAA-42)	MIC, S. aureus ATCC BAA 44 (SCCmec I) (MRSA ATCC BAA-44)	MIC, S. aureus ATCC 29213 (S. aureus ATCC 29213)	other results
CC[C@@H](C)[C@@H](NC(=O)[C@@H](Cc1c[nH]c2ccccc12)NC(=O)[C@@H](CCCCN)NC(=O)[C@H](NC(=O)[C@@H](CC(C)C)NC(=O)CNC(=O)CNC(=O)[C@H](NC(=O)[C@H](NC(=O)c1ccc2c(c1)C(=O)OC21c2ccc(O)cc2Oc2cc(O)ccc21)[C@H](C)O)C(C)C)C(C)C)C(=O)N[C@H](CC(C)C)C(=O)N[C@H](CCCCN)C(=O)N[C@@H](C(=O)N[C@@H](C(=O)N[C@H](CCCCN)C(=O)N[C@H](CCCCN)C(=O)N[C@H](Cc1ccccc1)C(=O)N[C@H](C)C(N)=O)C(C)C)[C@H](C)O [FAM-D-STIP3-29] (5FAM-[dT][dV]GG[dL][dV][dK][dW][dI][dL][dK][dT][dV][dK][dK][dF][dA]-NH2; C-terminus assumed)	–	–	–	–	–	–	–	–	–	α-Helical content (%) [1]: 55%
MTKDIVETVGGLVKWILDTVKKFA	–	–	–	–	–	–	–	–	–	fragment found (SspA): TVGGLVKWILDTVKKFA; also recorded: TVGGLVKWILD; also recorded: TVKKFA; also recorded: MTKDIVE
TAGGLVKWILDTVKKFA [V2A]	50 µg/mL	–	–	–	–	–	–	–	–	–
TVGGAVKWILDTVKKFA [L5A]	100 µg/mL	–	–	–	–	–	–	–	–	–
TVGGLAKWILDTVKKFA [V6A]	50 µg/mL	–	–	–	–	–	–	–	–	–
TVGGLVKAILDTVKKFA [W8A]	100 µg/mL	–	–	–	–	–	–	–	–	–
TVKVLVKWILKVVAKFA [STIP3-26, rationally designed STIP3-1 variant]	–	> (The > symbol indicates that no inhibition was observed at 100 μg/mL for the STIP3 variants)	> (The > symbol indicates that no inhibition was observed at 100 μg/mL for the STIP3 variants)	> (The > symbol indicates that no inhibition was observed at 100 μg/mL for the STIP3 variants)	> (The > symbol indicates that no inhibition was observed at 100 μg/mL for the STIP3 variants)	> (The > symbol indicates that no inhibition was observed at 100 μg/mL for the STIP3 variants)	> (The > symbol indicates that no inhibition was observed at 100 μg/mL for the STIP3 variants)	> (The > symbol indicates that no inhibition was observed at 100 μg/mL for the STIP3 variants)	> (The > symbol indicates that no inhibition was observed at 100 μg/mL for the STIP3 variants)	–
TVRALVKWILRTVAKFA [STIP3-20, rationally designed STIP3-1 variant]	–	25 µg/mL	25 µg/mL	25 µg/mL	50 µg/mL	12.5 µg/mL	25 µg/mL	25 µg/mL	25 µg/mL	–
TVRALVRWILRTVARFA [STIP3-23, rationally designed STIP3-1 variant]	–	25 µg/mL	25 µg/mL	50 µg/mL	25 µg/mL	6.25 µg/mL	50 µg/mL	25 µg/mL	25 µg/mL	–
TVXALVXWILXTVAXFA [STIP3-22, rationally designed STIP3-1 variant with L-ornithine]	–	25 µg/mL	25 µg/mL	25 µg/mL	100 µg/mL	25 µg/mL	25 µg/mL	25 µg/mL	25 µg/mL	–
f-MTKDIVETVGGLVKWILDTVKKFA	–	–	–	–	–	–	–	–	–	not cleaved (SspA): no SspA cleavage was observed
